Reference: ChEMBL document CHEMBL5303573, “Mapping human microbiome drug metabolism by gut bacteria and their genes” (Nature, 2019)

Key:
[1] = The drug is tested on Bacteroides uniformis strain: ATCC8492 for biotransformation. The drug concentrations were measured before and after a 12-h incubation by liquid-chromatography-coupled mass spectrometry (LC–MS); conditions: 2 µM
[2] = The drug is tested on Bifidobacterium longum subsp. Infantis strain: CCUG52486 for biotransformation. The drug concentrations were measured before and after a 12-h incubation by liquid-chromatography-coupled mass spectrometry (LC–MS); conditions: 2 µM
[3] = The drug is tested on Bacteroides cellulosilyticus strain: DSM14838 for biotransformation. The drug concentrations were measured before and after a 12-h incubation by liquid-chromatography-coupled mass spectrometry (LC–MS); conditions: 2 µM
[4] = The drug is tested on Bacteroides dorei strain: DSM17855 for biotransformation. The drug concentrations were measured before and after a 12-h incubation by liquid-chromatography-coupled mass spectrometry (LC–MS); conditions: phocaeicola dorei, 2 µM
[5] = The drug is tested on Providencia rettgeri strain: DSM1131 for biotransformation. The drug concentrations were measured before and after a 12-h incubation by liquid-chromatography-coupled mass spectrometry (LC–MS); assay type: ADME; design: dose 2 uM, timepoint 0 vs 12 hours; conditions: 2 µM
[6] = bifidobacterium adolescentis, 12 h, 2 µM
Description: The drug is tested on Bifidobacterium adolescentis strain: ATCC 15703 for biotransformation. The drug concentrations were measured before and after a 12-h incubation by liquid-chromatography-coupled mass spectrometry (LC–MS)

[7] = The drug is tested on Bacteroides fragilis strain: ATCC43859 for biotransformation. The drug concentrations were measured before and after a 12-h incubation by liquid-chromatography-coupled mass spectrometry (LC–MS); conditions: 2 µM
[8] = bacteroides eggerthii, 12 h, 2 µM
Description: The drug is tested on Bacteroides eggerthii strain: DSM20697 for biotransformation. The drug concentrations were measured before and after a 12-h incubation by liquid-chromatography-coupled mass spectrometry (LC–MS)

[9] = The drug is tested on Bacteroides vulgatus strain: ATCC8482 for biotransformation. The drug concentrations were measured before and after a 12-h incubation by liquid-chromatography-coupled mass spectrometry (LC–MS); conditions: phocaeicola vulgatus, 2 µM
[10] = The drug is tested on Clostridium symbiosum strain: ATCC14940 for biotransformation. The drug concentrations were measured before and after a 12-h incubation by liquid-chromatography-coupled mass spectrometry (LC–MS); conditions: 2 µM
[11] = The drug is tested on Ruminococcus lactaris strain: ATCC29176 for biotransformation. The drug concentrations were measured before and after a 12-h incubation by liquid-chromatography-coupled mass spectrometry (LC–MS); conditions: 2 µM
[12] = akkermansia muciniphila, 12 h, 2 µM
Description: The drug is tested on Akkermansia muciniphila strain: ATCC BAA-835 for biotransformation. The drug concentrations were measured before and after a 12-h incubation by liquid-chromatography-coupled mass spectrometry (LC–MS)

[13] = The drug is tested on Ruminococcus torques strain: ATCC27756 for biotransformation. The drug concentrations were measured before and after a 12-h incubation by liquid-chromatography-coupled mass spectrometry (LC–MS); assay type: ADME; design: dose 2 uM, timepoint 0 vs 12 hours; conditions: 2 µM
[14] = bacteroides intestinalis, 12 h, 2 µM
Description: The drug is tested on Bacteroides intestinalis strain: DSM17393 for biotransformation. The drug concentrations were measured before and after a 12-h incubation by liquid-chromatography-coupled mass spectrometry (LC–MS)

[15] = The drug is tested on Bifidobacterium ruminantium strain: fecal isolate for biotransformation. The drug concentrations were measured before and after a 12-h incubation by liquid-chromatography-coupled mass spectrometry (LC–MS); conditions: 2 µM
[16] = roseburia intestinalis, 12 h, 2 µM
Description: The drug is tested on Roseburia intestinalis strain: L1-82 for biotransformation. The drug concentrations were measured before and after a 12-h incubation by liquid-chromatography-coupled mass spectrometry (LC–MS)

[17] = The drug is tested on Bacteroides finegoldii strain: DSM17565 for biotransformation. The drug concentrations were measured before and after a 12-h incubation by liquid-chromatography-coupled mass spectrometry (LC–MS); conditions: 2 µM
[18] = The drug is tested on Bacteroides fragilis strain: HMW610 for biotransformation. The drug concentrations were measured before and after a 12-h incubation by liquid-chromatography-coupled mass spectrometry (LC–MS); conditions: 2 µM
[19] = bacteroides stercoris, 12 h, 2 µM
Description: The drug is tested on Bacteroides stercoris strain: ATCC43183 for biotransformation. The drug concentrations were measured before and after a 12-h incubation by liquid-chromatography-coupled mass spectrometry (LC–MS)

[20] = bacteroides thetaiotaomicron, 12 h, 2 µM
Description: The drug is tested on Bacteroides thetaiotaomicron strain: 7330 for biotransformation. The drug concentrations were measured before and after a 12-h incubation by liquid-chromatography-coupled mass spectrometry (LC–MS)

Row | Bacterial Biotransformation [1] | Bacterial Biotransformation [2] | Bacterial Biotransformation [3] | Bacterial Biotransformation [4] | Bacterial Biotransformation [5] | Bacterial Biotransformation [6] | Bacterial Biotransformation [7] | Bacterial Biotransformation [8] | Bacterial Biotransformation [9] | Bacterial Biotransformation [10] | Bacterial Biotransformation [11] | Bacterial Biotransformation [12] | Bacterial Biotransformation [13] | Bacterial Biotransformation [14] | Bacterial Biotransformation [15] | Bacterial Biotransformation [16] | Bacterial Biotransformation [17] | Bacterial Biotransformation [18] | Bacterial Biotransformation [19] | Bacterial Biotransformation [20] | SMILES
1 | Compound NOT metabolized | Compound NOT metabolized | Compound NOT metabolized | Compound NOT metabolized | Compound NOT metabolized | Compound NOT metabolized | Compound NOT metabolized | Compound NOT metabolized | Compound NOT metabolized | Compound NOT metabolized | Compound NOT metabolized | Compound NOT metabolized | Compound NOT metabolized | Compound NOT metabolized | Compound NOT metabolized | Compound NOT metabolized | Compound NOT metabolized | – | – | – | CC(C)(C)N.CCC[C@H](N[C@@H](C)C(=O)N1[C@H](C(=O)O)C[C@@H]2CCCC[C@@H]21)C(=O)OCC [PERINDOPRIL ERBUMINE]
2 | Compound metabolized | Compound NOT metabolized | Compound metabolized | Compound metabolized | Compound NOT metabolized | Compound NOT metabolized | Compound metabolized | – | Compound metabolized | Compound NOT metabolized | Compound NOT metabolized | Compound metabolized | Compound NOT metabolized | – | Compound metabolized | – | Compound metabolized | Compound metabolized | – | – | CCCCc1nc(Cl)c(CO)n1Cc1ccc(-c2ccccc2-c2nn[nH]n2)cc1 [LOSARTAN]
3 | Compound metabolized | Compound NOT metabolized | Compound NOT metabolized | Compound metabolized | Compound NOT metabolized | Compound NOT metabolized | Compound metabolized | Compound NOT metabolized | Compound metabolized | Compound NOT metabolized | Compound NOT metabolized | – | – | Compound NOT metabolized | Compound NOT metabolized | – | – | Compound metabolized | – | – | NC(CO)(CO)CO.O=C(c1ccccc1)c1ccc2n1CCC2C(=O)O (stereo not drawn) [KETOROLAC TROMETHAMINE]
4 | Compound metabolized | Compound NOT metabolized | Compound metabolized | Compound metabolized | Compound metabolized | Compound NOT metabolized | Compound NOT metabolized | Compound metabolized | Compound NOT metabolized | Compound metabolized | Compound metabolized | Compound metabolized | Compound NOT metabolized | Compound metabolized | Compound NOT metabolized | Compound metabolized | Compound metabolized | – | Compound metabolized | Compound NOT metabolized | C=CC[C@@H]1/C=C(\C)C[C@H](C)C[C@H](OC)[C@H]2O[C@@](O)(C(=O)C(=O)N3CCCC[C@H]3C(=O)O[C@H](/C(C)=C/[C@@H]3CC[C@@H](O)[C@H](OC)C3)[C@H](C)[C@@H](O)CC1=O)[C@H](C)C[C@@H]2OC.O [TACROLIMUS]
5 | Compound metabolized | Compound metabolized | Compound metabolized | Compound metabolized | Compound NOT metabolized | Compound NOT metabolized | Compound metabolized | Compound metabolized | Compound metabolized | Compound NOT metabolized | Compound NOT metabolized | – | Compound NOT metabolized | Compound NOT metabolized | Compound metabolized | Compound NOT metabolized | – | Compound metabolized | Compound metabolized | Compound metabolized | Cc1ccc(S(=O)(=O)NC(=O)NN2CCCCCC2)cc1 [TOLAZAMIDE]
6 | Compound NOT metabolized | Compound NOT metabolized | Compound NOT metabolized | – | Compound NOT metabolized | Compound NOT metabolized | Compound NOT metabolized | Compound NOT metabolized | – | Compound NOT metabolized | Compound NOT metabolized | – | Compound NOT metabolized | Compound NOT metabolized | Compound NOT metabolized | Compound NOT metabolized | Compound NOT metabolized | Compound NOT metabolized | Compound NOT metabolized | Compound NOT metabolized | CC(N)C12CC3CC(CC(C3)C1)C2 (stereo not drawn) [RIMANTADINE]
7 | Compound NOT metabolized | Compound NOT metabolized | Compound NOT metabolized | Compound NOT metabolized | Compound NOT metabolized | Compound NOT metabolized | Compound NOT metabolized | Compound NOT metabolized | Compound NOT metabolized | Compound NOT metabolized | Compound NOT metabolized | – | Compound NOT metabolized | Compound NOT metabolized | Compound NOT metabolized | Compound NOT metabolized | Compound NOT metabolized | Compound NOT metabolized | Compound NOT metabolized | Compound NOT metabolized | COc1ccccc1OCC(O)CN1CCN(CC(=O)Nc2c(C)cccc2C)CC1 (stereo not drawn) [RANOLAZINE]

Row | SMILES | Bacterial Biotransformation [1] | Bacterial Biotransformation [2] | Bacterial Biotransformation [3] | Bacterial Biotransformation [4] | Bacterial Biotransformation [5] | Bacterial Biotransformation [6] | Bacterial Biotransformation [7] | Bacterial Biotransformation [8] | Bacterial Biotransformation [9] | Bacterial Biotransformation [10] | Bacterial Biotransformation [11] | Bacterial Biotransformation [12] | Bacterial Biotransformation [13] | Bacterial Biotransformation [14] | Bacterial Biotransformation [15] | Bacterial Biotransformation [16] | Bacterial Biotransformation [17] | Bacterial Biotransformation [18] | Bacterial Biotransformation [19] | Bacterial Biotransformation [20]
8 | CCN(C)C(=O)Oc1cccc([C@H](C)N(C)C)c1.O=C(O)C(O)C(O)C(=O)O [RIVASTIGMINE TARTRATE] | Compound NOT metabolized | Compound NOT metabolized | Compound NOT metabolized | – | Compound NOT metabolized | Compound NOT metabolized | Compound NOT metabolized | Compound NOT metabolized | – | Compound NOT metabolized | Compound NOT metabolized | Compound NOT metabolized | Compound NOT metabolized | Compound NOT metabolized | Compound NOT metabolized | Compound NOT metabolized | Compound NOT metabolized | Compound NOT metabolized | Compound NOT metabolized | –
9 | COc1cc2nc(N3CCN(C(=O)c4ccco4)CC3)nc(N)c2cc1OC [PRAZOSIN] | Compound NOT metabolized | Compound NOT metabolized | Compound NOT metabolized | – | Compound NOT metabolized | Compound NOT metabolized | Compound NOT metabolized | Compound NOT metabolized | – | – | Compound NOT metabolized | Compound NOT metabolized | Compound NOT metabolized | Compound NOT metabolized | Compound NOT metabolized | Compound NOT metabolized | Compound NOT metabolized | Compound NOT metabolized | Compound NOT metabolized | Compound NOT metabolized
